Some targets named below: FecB R141S (Mycobacterium tuberculosis, UniProt O53291, R141S); FecB L163R (Mycobacterium tuberculosis, UniProt O53291, L163R); FecB Q233S (Mycobacterium tuberculosis, UniProt O53291, Q233S); FecB R240S (Mycobacterium tuberculosis, UniProt O53291, R240S); FecB Y270S (Mycobacterium tuberculosis, UniProt O53291, Y270S); FecB E272S (Mycobacterium tuberculosis, UniProt O53291, E272S); FecB D332S (Mycobacterium tuberculosis, UniProt O53291, D332S); FecB Q336S (Mycobacterium tuberculosis, UniProt O53291, Q336S).

Common to all, as to assay type: binding

The record followed here is publication PMC10553834, “Differentiating the roles of Mycobacterium tuberculosis substrate binding proteins, FecB and FecB2, in iron uptake” (PLOS Pathogens, 2023).

The Kd is a measure of binding affinity in units of concentration. Regarding ferric-carboxymycobactin [Fe-cMB], the Kd on FecB R141S is 1.13 µM; at FecB L163R it was 1.16 µM; on FecB Q233S, 1.05 µM; at FecB R240S it was 1.1 µM; on FecB Y270S, 0.94 µM; on FecB E272S, 1.73 µM. Moreover, the Kd on FecB D332S was 0.99 µM; at FecB Q336S it was 1.4 µM.
